Test results taken from article PMC10848157, “Assessing NH300094, a novel dopamine and serotonin receptor modulator with cognitive enhancement property for treating schizophrenia” (Frontiers in Pharmacology, 2024).

Experiment: Spontaneous locomotor activity test in mice
Conditions: mouse, in vivo; single oral dose, male ICR mice; read-out: ED50, inhibition of spontaneous locomotor activity

In the case of `O=C1CCc2cc(OCCCN3CCC(c4noc5cc(F)ccc45)CC3)cc3c2N1CC3` [NH300094, 8-(3-(4-(6-fluorobenzo [d]isoxazol-3-yl)piperidin-1-yl)propoxy)-1,2,5,6-tetrahydro-4H-pyrrolo [3,2,1-ij] quinolin-4-one], the ED50 at 60 min is reported as about 0.49 mg/kg.
